Reference: the C3SDB collision cross section collection

Details: instrument: DT, stepped-field

Row | Structure (SMILES) | collision cross section (N2) ([M+H]+) [Å²] | collision cross section (N2) ([M+Na]+) [Å²] | collision cross section (N2) ([M]+) [Å²]
1 | Cc1cccc2ccccc12 [1-methylnaphthalene] | 125.2 |  | 
2 | CCCCCC(O)/C=C/C=C\CCCCCCCC(=O)O (centres undefined) [13-HODE] |  | 191.83 | 
3 | CC(=O)OP(=O)(O)O [Acetyl Phosphate] |  | 125.44 | 
4 | O=c1ccn([C@H]2C[C@H](O)[C@@H](CO)O2)c(=O)[nH]1 [Deoxyuridine] |  | 159.45 | 
5 | O=C1c2ccccc2-c2cccc3cccc1c23 [Benzanthrone] | 145.71 |  | 
6 | Cn1c(N)nc2c(ncn2[C@@H]2O[C@H](CO)[C@@H](O)[C@H]2O)c1=O [1-Methylguanosine] | 168.8 | 180.8 | 
7 | Cn1cnc2[nH]c(N)nc(=O)c21 [7-Methylguanine] | 134.33 | 149.72 | 
8 | O=C(O)CNC(=O)c1ccccc1O [2-Hydroxy Hippuric Acid] |  | 154.87 | 
9 | O=C(O)C1=CC(=O)[C@@H](O)[C@H](O)C1 [3-Dehydroshikimic Acid] | 132.73 |  | 
10 | OC[C@H]1O[C@@H](O[C@H]2[C@H](O)[C@@H](O)[C@H](O[C@H]3[C@H](O)[C@@H](O)C(O)O[C@@H]3CO)O[C@@H]2CO)[C@H](O)[C@@H](O)[C@@H]1O (some centres undefined) [Cellotriose] |  | 215.69 | 
11 | Nc1ncnc2c1ncn2[C@@H]1O[C@H](COP(=O)(O)O)[C@@H](O)[C@H]1O [Adenosine 5' Monophosphate] | 173.33 | 180.73 | 
12 | NCCCNCCCN [Bis(3-aminopropyl)amine] | 128.52 |  | 
13 | C[N+](C)(C)CCCC(=O)[O-] [Deoxycarnitine] | 130.4 |  | 
14 | CC(C)(CO)[C@@H](O)C(=O)NCCC(=O)O [D-Pantothenic Acid] | 150.17 | 155.27 | 
15 | CCCCC/C=C\C[C@@H](O)/C=C/C=C\C/C=C\CCCC(=O)O [12R-HETE] |  | 194.4 | 
16 | CCCCC[C@@H](/C=C/[C@@H]1[C@@H](C/C=C\CCCC(=O)O)[C@@H]2C[C@H]1OO2)OO [Prostaglandin G2] |  | 199.3 | 
17 | Cc1ncc(CO)c(C(=O)O)c1O [4-Pyridoxate] | 137.27 | 151.78 | 

Row | Structure (SMILES) | collision cross section (N2) ([M+H]+) [Å²] | collision cross section (N2) ([M+Na]+) [Å²] | collision cross section (N2) ([M]+) [Å²]
18 | Oc1cc(O)c2c(c1)O[C@H](c1ccc(O)c(O)c1)[C@@H](O)C2 [Catechin] | 165.18 | 184.42 | 
19 | COc1cc2c(cc1O)CC[C@@H]1[C@@H]2CC[C@]2(C)C(=O)CC[C@@H]12 [2-Methoxyestrone] | 174.47 | 201.71 | 
20 | c1ccc2cc3c(cc2c1)-c1cccc2cccc-3c12 [Benzo(k)fluoranthene] | 154.36 |  | 
21 | O=c1cc(-c2ccc(O)c(-c3c(O)cc(O)c4c(=O)cc(-c5ccc(O)cc5)oc34)c2)oc2cc(O)cc(O)c12 [Amentoflavone] | 230.16 |  | 
22 | NC(=O)NCCC(=O)O [3-Ureidopropionic Acid] |  | 135.8 | 
23 | C[C@]12CCC(=O)C=C1CC[C@@H]1[C@@H]2[C@@H](O)C[C@@]2(C)[C@H]1CC[C@]2(O)C(=O)CO [Cortisol] | 188.88 | 213.91 | 
24 | CCCC(=O)C(=O)O [2-Oxovaleric Acid] |  | 131.64 | 
25 | COc1cc(-c2[o+]c3cc(O)cc(O)c3cc2O)cc(OC)c1O [Malvidin] |  |  | 178.55
26 | O=C(O)Cc1cnc[nH]1 [Imidazole-4-acetic Acid] | 128.23 | 148.03 | 
27 | CSC[C@H]1O[C@@H](n2cnc3c(N)ncnc32)[C@H](O)[C@@H]1O [5'-Methylthioadenosine] | 173.03 | 176.54 | 
28 | CN(C)[C@@H]1C(=O)C(C(N)=O)=C(O)[C@@]2(O)C(=O)C3=C(O)c4c(O)cccc4[C@@](C)(O)[C@H]3C[C@@H]12 [Tetracycline] | 198.48 | 212.5 | 
29 | Cn1cnc2ncnc-2c1N [1-Methyladenine] | 128.35 |  | 
30 | CC(=O)SCCNC(=O)CCNC(=O)[C@H](O)C(C)(C)COP(=O)(O)OP(=O)(O)OC[C@H]1O[C@@H](n2cnc3c(N)ncnc32)[C@H](O)[C@@H]1OP(=O)(O)O [Acetyl coenzyme A] | 249.8 | 263.07 | 
31 | O=c1c(-c2ccc(O)cc2)coc2cc(O)ccc12 [Daidzein] | 157.23 | 173.13 | 
32 | C=C(C)[C@H]1Cc2c(ccc3c2O[C@@H]2COc4cc(OC)c(OC)cc4[C@@H]2C3=O)O1 [Rotenone] | 199.63 | 213.17 | 
33 | CC(C)[C@]12CC(=O)[C@H](C)[C@H]1C2 [Thujone] | 141.82 |  | 

Now from value to compound, other results behind:

Row | collision cross section (N2) ([M+H]+) [Å²] | collision cross section (N2) ([M+Na]+) [Å²] | Structure (SMILES) | collision cross section (N2) ([M]+) [Å²]
34 | 176.54 | 184.45 | COc1ccc([C@@H]2CC(=O)c3c(O)cc(O)cc3O2)cc1O [Hesperetin] | 
35 |  | 157.21 | COc1c(Cl)ccc(Cl)c1C(=O)O [Dicamba] | 
36 | 154.22 |  | N[C@@H](Cc1c[nH]c2ccccc12)C(=O)O [L-Tryptophan] | 
37 | 236.8 | 238.37 | CCCCCCCCCCCCCCCC/C=C\OC[C@@H](O)COP(=O)([O-])OCC[N+](C)(C)C [LPC(p18:0)] | 
38 | 184.62 | 185.06 | CC/C=C\C/C=C\C/C=C\C/C=C\C/C=C\C/C=C\CCC(=O)O [Docosahexaenoic Acid] | 
39 | 181 | 184.12 | NC(=O)[C@@H]1CCCN1C(=O)[C@H](Cc1cnc[nH]1)NC(=O)[C@@H]1CCC(=O)N1 [Thyrotropin-releasing hormone] | 
40 | 187.9 | 208.15 | COc1ccc(-c2cc(=O)c3c(OC)c(OC)c(OC)c(OC)c3o2)cc1 [Tangeritin] | 
41 |  | 149.57 | COc1cc(CC(=O)O)ccc1O [Homovanillic Acid] | 
42 | 137.67 |  | C[Se]CC[C@H](N)C(=O)O [L-Selenomethionine] | 
43 | 192.43 | 199.4 | Cc1cc2nc3c(=O)[nH]c(=O)nc-3n(C[C@H](O)[C@H](O)[C@H](O)CO)c2cc1C [Riboflavin] | 
44 | 138.94 | 160.36 | C=CCc1ccc(OC)c(OC)c1 [Methyleugenol] | 
45 |  | 146.11 | O=C1O[C@H]([C@@H](O)CO)C(O)=C1O [L-Ascorbic Acid] | 
46 | 129.79 |  | NCCC[C@H](N)C(=O)O [L-Ornithine] | 
47 | 201.48 | 210.66 | Cc1cc2nc3c(=O)[nH]c(=O)nc-3n(C[C@H](O)[C@H](O)[C@H](O)COP(=O)(O)O)c2cc1C [Riboflavin 5'-Monophosphate] | 
48 |  | 149.53 | CSCC[C@H](NC=O)C(=O)O [N-Formyl-L-methionine] | 
49 |  | 142.16 | O=P(O)(O)OC[C@H](O)CO [sn-Glycerol 3-phosphate] | 
50 |  | 237.34 | CCCCCCCC/C=C\CCCCCCCC(=O)OC[C@@H](O)COP(=O)([O-])OCC[N+](C)(C)C [LPC 18:1] | 

Row | collision cross section (N2) ([M+H]+) [Å²] | collision cross section (N2) ([M+Na]+) [Å²] | Structure (SMILES) | collision cross section (N2) ([M]+) [Å²]
51 |  | 143.47 | O=C(O)[C@@H](O)[C@@H](O)[C@@H](O)CO [L-Ribonic Acid] | 
52 | 138.11 |  | O=C(O)Cc1c[nH]c2ccccc12 [Indoleacetic Acid] | 
53 |  | 154.46 | O=c1ccc2ccc(O)cc2o1 [Umbelliferone] | 
54 |  | 143.7 | CC(=O)N[C@@H](CC(=O)O)C(=O)O [N-Acetyl-L-aspartic Acid] | 
55 |  | 156.44 | O=C(CO)[C@@H](O)[C@H](O)[C@H](O)COP(=O)(O)O [Fructose-6-phosphate] | 
56 | 155.67 | 162.74 | CC(=O)N[C@H](Cc1c[nH]c2ccccc12)C(=O)O [N-Acetyl-D-tryptophan] | 
57 | 137.54 |  | O=C(O)/C=C/c1cnc[nH]1 [Urocanate] | 
58 | 167.13 |  | NC(=O)c1ccc[n+]([C@@H]2O[C@H](COP(=O)([O-])O)[C@@H](O)[C@H]2O)c1 [Nicotinamide Mononucleotide] | 
59 | 196.48 | 201.41 | COC(=O)c1c(Cl)nn(C)c1S(=O)(=O)NC(=O)Nc1nc(OC)cc(OC)n1 [Halosulfuron-methyl] | 
60 | 146.82 | 154.06 | O=C(O)CNC(=O)c1ccccc1 [Hippuric Acid] | 
61 | 147.46 | 147.22 | N[C@@H](CCOC(=O)CCC(=O)O)C(=O)O [O-Succinyl-L-homoserine] | 
62 |  | 133.58 | O=C(O)/C=C/C(=O)O [Fumaric Acid] | 
63 | 134.28 | 144.07 | CC(C)[C@H](N)C(=O)O [L-Valine] | 
64 |  | 144.07 | O=C(CO)COP(=O)(O)O [Dihydroxyacetone Phosphate] | 
65 | 183.55 | 195.98 | COc1ccc2c(c1)c(CC(=O)O)c(C)n2C(=O)c1ccc(Cl)cc1 [Indomethacin] | 
66 |  | 210.83 | OC[C@H]1O[C@H](OC[C@H]2O[C@H](OC[C@H]3OC(O)[C@H](O)[C@@H](O)[C@@H]3O)[C@H](O)[C@@H](O)[C@@H]2O)[C@H](O)[C@@H](O)[C@@H]1O (some centres undefined) [Isomaltotriose] | 
